From article PMC8910297, “Investigation of the Molecular Details of the Interactions of Selenoglycosides and Human Galectin-3” (International Journal of Molecular Sciences, 2022)
Where two headings read alike, the source gives them in different places.

Columns and labels:
[1] = target: T1, Human galectin-3 (hGal-3) (Homo sapiens, UniProt P17931); experiment: biochemical
T1 construct: gene LGALS3

[2] = target: T1, Human galectin-3 (hGal-3); experiment: biochemical; remark: listed apart in the source

T1 sequence (P17931 108-250): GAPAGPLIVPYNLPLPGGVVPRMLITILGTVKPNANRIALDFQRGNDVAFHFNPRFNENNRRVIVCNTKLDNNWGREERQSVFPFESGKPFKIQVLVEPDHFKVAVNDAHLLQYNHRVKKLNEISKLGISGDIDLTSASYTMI

| SMILES | Kd [1] [mM] | Kd [2] [mM] |
| --- | --- | --- |
| OC[C@H]1O[C@@H]([Se][C@@H]2O[C@H](CO)[C@H](O)[C@H](O)[C@H]2O)[C@H](O)[C@@H](O)[C@H]1O [SeDG, di(β-D-galactopyranosyl)selenide] | 0.0352 ± 0.0072 |  |
| OC[C@H]1O[C@@H]([Se][Se][C@@H]2O[C@H](CO)[C@H](O)[C@H](O)[C@H]2O)[C@H](O)[C@@H](O)[C@H]1O [DSeDG, di(β-D-galactopyranosyl)diselenide] |  | 8.5 ± 2.5 |
